{"source": "patent US9428504B2", "about": "“7-hydroxy-spiropipiperidine indolinyl antagonists of P2Y1 receptor” (BRISTOL-MYERS SQUIBB COMPANY, priority 2012, dated 2016)", "key": {"[1]": {"test_system": "human platelet rich plasma (PRP)", "test": "ADP induced platelet aggregation assay", "conditions": "Homo sapiens, Platelet, read-out: PA IC50 (μM) @ 10 μM ADP, platelet aggregation induced by 10 μM ADP, human PRP"}, "[2]": {"target": "cloned human P2Y1 receptors (Homo sapiens (Human), UniProt P47900)", "sequence (P47900 whole entry)": "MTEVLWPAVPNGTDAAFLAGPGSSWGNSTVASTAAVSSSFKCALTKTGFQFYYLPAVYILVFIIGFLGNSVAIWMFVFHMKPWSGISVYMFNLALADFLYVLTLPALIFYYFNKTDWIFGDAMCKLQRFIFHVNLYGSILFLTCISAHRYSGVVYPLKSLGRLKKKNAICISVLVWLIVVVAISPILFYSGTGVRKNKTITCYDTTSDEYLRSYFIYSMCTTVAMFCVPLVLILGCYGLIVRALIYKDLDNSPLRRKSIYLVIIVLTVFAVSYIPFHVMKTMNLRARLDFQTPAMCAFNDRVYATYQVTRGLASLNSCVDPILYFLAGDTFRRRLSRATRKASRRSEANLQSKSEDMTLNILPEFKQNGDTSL", "test": "Binding Assay B: Scintillation Proximity Assay (SPA) for P2Y1 binding", "conditions": "SPA, [33P] 2MeS-ADP displacement; read-out: P2Y1 Ki (nM) using binding assay B", "method": "A SPA membrane binding assay was used to identify inhibitors of [^33P] […] Binding reactions were performed in 384-well OptiPlates (PerkinElmer Life Sciences, Cat #6007299) in a volume of 50 μL containing ˜15 fmol of P2Y1 receptor (1.7 μg of total protein), 0.3 nM [^33P] […] Reactions were allowed to proceed to completion at room temperature for 1 hour followed by centrifugation of the plate for 5 min. About 40 μL of the aqueous solution was aspirated. Plates were sealed and the [^33P]"}}, "note": "Structures can show the parent of a compound that is named as a salt.", "data": [{"smiles": "CC(C)(C)CN1CCC2(CC1)CN(c1ccccc1NC(=O)Nc1nc3ccc(Cl)nc3s1)c1c(O)ccc(-c3nc4cc(F)ccc4s3)c12", "note": "[Example 126, 1-(5-Chlorothiazolo[5,4-b]pyridin-2-yl)-3-(2-(4-(5-fluorobenzo[d]thiazol-2-yl)-7-hydroxy-1′-neopentylspiro[indoline-3,4′-piperidin]-1-yl)phenyl)urea]", "values": [{"measurement": "IC50", "setting": "[1]", "result": 0.4, "unit": "µM"}, {"measurement": "Ki", "setting": "[2]", "result": 13.1, "unit": "nM"}]}, {"smiles": "CC(C)(C)CN1CCC2(CC1)CN(c1ccccc1NC(=O)Nc1nc3ccc(Cl)cc3s1)c1c(O)ccc(Cl)c12", "note": "[Example 38, 1-(2-(4-Chloro-7-hydroxy-1′-neopentylspiro[indoline-3,4′-piperidine]-1-yl)phenyl)-3-(6-chlorobenzo[d]thiazol-2-yl)urea]", "values": [{"measurement": "IC50", "setting": "[1]", "result": 0.4, "unit": "µM"}, {"measurement": "Ki", "setting": "[2]", "result": 10, "unit": "nM"}]}, {"smiles": "Cc1ccc2nc(NC(=O)Nc3ccccc3N3CC4(CCN(CC(C)(C)C)CC4)c4c(C#N)ccc(O)c43)sc2c1", "note": "[Example 84, 1-(2-(4-Cyano-7-hydroxy-1′-neopentylspiro[indoline-3,4′-piperidine]-l-yl)phenyl)-3-(6-methylbenzo[d]thiazol-2-yl) urea, trifluoroacetic acid salt]", "values": [{"measurement": "IC50", "setting": "[1]", "result": 0.5, "unit": "µM"}, {"measurement": "Ki", "setting": "[2]", "result": 11.8, "unit": "nM"}]}, {"smiles": "CC(C)(C)CN1CCC2(CC1)CN(c1ccccc1NC(=O)Nc1ccc(F)cc1F)c1c(O)ccc(C(F)(F)F)c12", "note": "[Example 20, 1-(2,4-Difluorophenyl)-3-(2-(7-hydroxy-1′-neopentyl-4-(trifluoromethyl)spiro[indoline-3,4′-piperidine]-1-yl)phenyl)urea]", "values": [{"measurement": "IC50", "setting": "[1]", "result": 0.2, "unit": "µM"}, {"measurement": "Ki", "setting": "[2]", "result": 3.2, "unit": "nM"}]}, {"smiles": "CC(C)(C)CN1CCC2(CC1)CN(c1ccccc1NC(=O)Nc1csc(C(F)(F)F)n1)c1c(O)cc(F)c(-c3ccc(Cl)cc3)c12", "note": "[Example 158, 1-(2-(4-(4-Chlorophenyl)-5-fluoro-7-hydroxy-1′-neopentylspiro[indoline-3,4′-piperidin]-1-yl)phenyl)-3-(2-(trifluoromethyl)thiazol-4-yl)urea]", "values": [{"measurement": "IC50", "setting": "[1]", "result": 0.3, "unit": "µM"}, {"measurement": "Ki", "setting": "[2]", "result": 15.4, "unit": "nM"}]}, {"smiles": "CC(C)(C)CN1CCC2(CC1)CN(c1ccc(C#N)cc1NC(=O)Nc1ccc(OC(F)(F)F)cc1)c1c(O)ccc(Cl)c12", "note": "[Example 69, 1-(2-(4-Chloro-7-hydroxy-1′-neopentylspiro[indoline-3,4′-piperidine]-1-yl)-5-cyanophenyl)-3-(4-(trifluoromethoxy)phenyl)urea]", "values": [{"measurement": "IC50", "setting": "[1]", "result": 0.8, "unit": "µM"}, {"measurement": "Ki", "setting": "[2]", "result": 21.4, "unit": "nM"}]}, {"smiles": "CC(C)(C)CN1CCC2(CC1)CN(c1ccccc1NC(=O)Nc1ccc(C(C)(C)C)cc1)c1c(O)cc(F)c(F)c12", "note": "[Example 9, 1-(4-tert-Butylphenyl)-3-(2-(4,5-difluoro-7-hydroxy-1′-neopentylspiro [indoline-3,4′-piperidine]-1-yl)phenyl)urea]", "values": [{"measurement": "IC50", "setting": "[1]", "result": 0.9, "unit": "µM"}, {"measurement": "Ki", "setting": "[2]", "result": 10.5, "unit": "nM"}]}, {"smiles": "CC(C)(C)CN1CCC2(CC1)CN(c1ccccc1NC(=O)Nc1nc3ccc(F)cc3s1)c1c(O)cc(F)c(Cl)c12", "note": "[Example 93, 1-(2-(4-Chloro-5-fluoro-7-hydroxy-1′-neopentylspiro [indoline-3,4′-piperidine]-1-yl)phenyl)-3-(6-fluorobenzo[d]thiazol-2-yl)urea]", "values": [{"measurement": "IC50", "setting": "[1]", "result": 0.5, "unit": "µM"}, {"measurement": "Ki", "setting": "[2]", "result": 13.5, "unit": "nM"}]}, {"smiles": "CC(C)(C)CN1CCC2(CC1)CN(c1ccccc1NC(=O)Nc1nc3ccc(Cl)nc3s1)c1c(O)cc(F)c(-c3ccc(F)cc3)c12", "note": "[Example 152]", "values": [{"measurement": "IC50", "setting": "[1]", "result": 0.2, "unit": "µM"}, {"measurement": "Ki", "setting": "[2]", "result": 10.2, "unit": "nM"}]}, {"smiles": "CC(C)(C)CN1CCC2(CC1)CN(c1ccccc1NC(=O)Nc1ccc(OC(F)(F)F)cc1)c1c(O)c(F)cc(-c3ccc(F)cc3)c12", "note": "[Example 153, 1-(2-(6-Fluoro-4-(4-fluorophenyl)-7-hydroxy-1′-neopentylspiro[indoline-3,4′-piperidin]-1-yl)phenyl)-3-(4-(trifluoromethoxy)phenyl)urea]", "values": [{"measurement": "IC50", "setting": "[1]", "result": 0.4, "unit": "µM"}, {"measurement": "Ki", "setting": "[2]", "result": 11.5, "unit": "nM"}]}, {"smiles": "CC(C)(C)CN1CCC2(CC1)CN(c1ccccc1NC(=O)Nc1ccc(OC(F)(F)F)cc1)c1c(O)cc(F)c(-c3nc4ccc(F)cc4s3)c12", "note": "[Example 147, 1-(2-(5-Fluoro-4-(6-fluorobenzo[d]thiazol-2-yl)-7-hydroxy-1′-neopentylspiro[indoline-3,4′-piperidin]-1-yl)phenyl)-3-(4-(trifluoromethoxy)phenyl)urea]", "values": [{"measurement": "IC50", "setting": "[1]", "result": 0.5, "unit": "µM"}, {"measurement": "Ki", "setting": "[2]", "result": 14.8, "unit": "nM"}]}]}
